Data reported in publication PMC6104039 (Nature Communications, 2018).
Entries after “also recorded” stand apart in the source; their conditions may differ.

How the values were obtained:
[1] = system: SkM; test: Mitochondrial DNA content of SkM by quantitative PCR; format: in vivo, mice
Protocol: Total DNA was isolated using standard phenol:chloroform extraction, followed by RNase H (NEB) treatment. Relative levels of nuclear and mitochondrial DNA were determined by quantitative PCR on a LightCycler 480 (Roche) using SensiFAST SYBR mastermix (Bioline). Primers for quantification of genomic DNA were: 5′- […]-3′, and 5′- […]-3′; and mitochondrial DNA: 5′- […]-3′, and 5′- […]-3′[73]. Calibration curves of Ct against input DNA were prepared from a pooled sample of mouse SkM DNA, and used to calculate the relative abundance of mitochondrial to nuclear DNA in each sample.

[2] = target: recombinant human sphingosine kinase 1 (Homo sapiens, UniProt Q9NYA1); details: 10 μM
Chain of recombinant human sphingosine kinase 1 (Q9NYA1 whole entry): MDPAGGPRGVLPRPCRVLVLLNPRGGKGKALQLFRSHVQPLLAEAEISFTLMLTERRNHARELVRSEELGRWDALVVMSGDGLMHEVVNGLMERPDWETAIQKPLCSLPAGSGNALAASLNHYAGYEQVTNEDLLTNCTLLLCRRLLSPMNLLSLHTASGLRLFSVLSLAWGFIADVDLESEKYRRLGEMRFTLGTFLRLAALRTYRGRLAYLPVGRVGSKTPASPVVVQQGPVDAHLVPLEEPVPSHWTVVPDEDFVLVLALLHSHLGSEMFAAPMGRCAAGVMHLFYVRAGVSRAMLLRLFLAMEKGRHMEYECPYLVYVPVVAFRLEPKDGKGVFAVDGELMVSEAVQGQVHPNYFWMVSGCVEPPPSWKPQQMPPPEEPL
Protocol: Sphingosine kinase assays were performed using fluorescent NBD-dihydrosphingosine[63],[64]. […] Reactions were stopped with 100 μL methanol, and 5 μL amounts were resolved on Silica Gel 60 thin layer chromatography (TLC) plates using butanol:acetic acid:water (3:1:1). The fluorescent NBD-dihydrosphingosine 1-phosphate band was quantified using a BioRad ChemiDoc imaging system with excitation by UV light.
Supplementary Figure 2. […] Activity of recombinant
human sphingosine kinases 1 and 2 (SphK1 and 2) was assessed in the presence of 10 µM
Activity is expressed as a percentage of the vehicle control.

C[C@@](N)(CO)CCc1ccc(OCc2ccc(Cl)c(Cl)c2)cc1 [P053, (S)-2-amino-4-(4-(3,4-dichlorobenzyloxy)phenyl)-2-methylbutan-1-ol] was tested, and the “mitochondrial DNA content” value [1] was “elevated” and the “reduction in sphingosine kinase 1 activity” value [2] was “did not inhibit; also recorded: does not inhibit; also recorded: no inhibitory activity”.
